Assay [1] has as its system blood leukocytes and basophils. Nature of the assay: Study on evaluation of blood leukocyte count and basophil count in humans (placebo-controlled, randomized, double-blind, parallel-group). The format is in vivo. The note with it: one capsule with 20 mg L-ergothioneine per day orally for four weeks, week 4 vs pre-testing, compared with control food group. The method, then: In order to evaluate the influence of supplements containing ergothioneine on blood leukocyte count and basophil count in humans, a placebo-controlled, randomized, double-blind, parallel-group study was conducted on subjects including male and female adults (46 subjects in a test food group; 46 subjects in a control food group; 92 subjects in total). In this study, one capsule containing 20 mg ergothioneine (test food) or one capsule not containing ergothioneine (control food) was fed per day for four weeks. The blood leukocyte count and basophil count in each subject were measured for pre-testing before starting the study (before starting ingestion of the test food or control food). After ingestion of the test food or control food for four weeks, the blood leukocyte count and basophil count in each subject were measured again (testing on week 4). […] Specifically, the amount of change in the test food group at the time of testing on week 4 was determined for the test food group by subtracting the blood leukocyte count (average) at the time of pre-testing from the blood leukocyte count (average) at the time of testing on week 4. Similarly, the amount of change at the time of testing on week 4 was determined for the control food group by subtracting the blood leukocyte count (average) at the time of pre-testing from the blood leukocyte count (average) at the time of testing on week 4. […]

Assay [2] has as its target T1, recombinant human epidermal growth factor receptor (EGFR) tyrosine kinase (Homo sapiens, UniProt P00533).
T1 construct: host or cells: insect cells
Nature of the assay: Evaluation of activity to inhibit substrate binding of EGFR tyrosine kinase ([32P]Poly(Glu:Tyr) formation, Eurofins Panlabs). It is filed as biochemical. The note with it: 100 or 1000 μM L-ergothioneine, HEPES buffer pH 7.4, 37° C., 10 μM ATP, 0.2 mg/mL Poly(Glu:Tyr). The protocol: The study was commissioned to Eurofins Panlabs. The study was performed using recombinant human epidermal growth factor receptor (EGFR) tyrosine kinase expressed in insect cells. First, epidermal growth factor receptor (EGFR) tyrosine kinase (0.134 μg/mL) was incubated in HEPES buffer (pH 7.4) with 100 or 1000 μM L-ergothioneine at 37° C. for 15 minutes. Then, 0.2 mg/mL Poly(Glu:Tyr), 10 μM ATP, and 0.25 μCi [γ^32P] ATP were added. Thereby, an enzymatic reaction was initiated. After incubating at 37° ° C. for 30 minutes, 3% H3PO4 was added to terminate the reaction. Lastly, the activity of ergothioneine to inhibit substrate binding was evaluated using the amount of [^32P]Poly(Glu:Tyr) formed in the reaction as an index.

For assay [3] the following is noted: mice orally administered with ergothioneine vs mice not administered; cited from earlier work.
In assay [4] the test system is IL-6, IL-12p40, IL-1β, and IL-10. Conditions: absence of the TLR ligand, ergothioneine concentration 0 or 10 mM; cited from earlier work.

Molecules are shown by their SMILES.

The values that follow come from patent publication US20240216335A1, “COMPOSITION FOR INCREASING LEUKOCYTES AND/OR BASOPHILS” (SUNTORY HOLDINGS LIMITED, priority 2021, published 2024).

T1 sequence (P00533 25-1210): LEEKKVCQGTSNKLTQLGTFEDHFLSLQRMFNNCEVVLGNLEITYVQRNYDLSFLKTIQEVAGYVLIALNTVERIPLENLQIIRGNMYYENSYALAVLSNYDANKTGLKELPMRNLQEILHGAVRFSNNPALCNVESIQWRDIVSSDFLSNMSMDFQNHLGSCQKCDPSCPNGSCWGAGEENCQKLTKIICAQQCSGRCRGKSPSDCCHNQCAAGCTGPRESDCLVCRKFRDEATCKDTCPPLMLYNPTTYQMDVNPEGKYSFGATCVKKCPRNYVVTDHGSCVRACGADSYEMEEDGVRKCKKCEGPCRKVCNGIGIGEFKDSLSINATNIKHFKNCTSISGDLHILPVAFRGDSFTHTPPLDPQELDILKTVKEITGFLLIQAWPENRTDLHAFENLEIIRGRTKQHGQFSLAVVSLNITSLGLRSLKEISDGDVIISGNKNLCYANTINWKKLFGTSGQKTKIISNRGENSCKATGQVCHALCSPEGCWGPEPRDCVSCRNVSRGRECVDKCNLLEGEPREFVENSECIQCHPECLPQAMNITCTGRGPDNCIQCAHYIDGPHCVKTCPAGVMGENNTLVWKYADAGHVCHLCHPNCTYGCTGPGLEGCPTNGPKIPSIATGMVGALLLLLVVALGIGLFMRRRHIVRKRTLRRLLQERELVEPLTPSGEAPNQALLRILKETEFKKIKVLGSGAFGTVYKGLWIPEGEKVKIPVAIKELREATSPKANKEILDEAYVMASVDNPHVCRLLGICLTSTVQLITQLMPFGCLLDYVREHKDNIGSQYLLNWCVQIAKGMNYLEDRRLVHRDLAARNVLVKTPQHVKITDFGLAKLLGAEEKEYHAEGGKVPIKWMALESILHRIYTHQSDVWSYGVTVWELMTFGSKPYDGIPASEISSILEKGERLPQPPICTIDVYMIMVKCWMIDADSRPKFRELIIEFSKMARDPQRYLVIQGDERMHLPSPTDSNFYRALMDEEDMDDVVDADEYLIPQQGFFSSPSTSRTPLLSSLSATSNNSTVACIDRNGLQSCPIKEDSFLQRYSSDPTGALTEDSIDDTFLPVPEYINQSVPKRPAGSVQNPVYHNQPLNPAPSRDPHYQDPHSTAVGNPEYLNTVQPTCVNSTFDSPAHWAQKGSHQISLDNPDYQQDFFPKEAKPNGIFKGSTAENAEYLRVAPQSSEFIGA

For the compound `C[N+](C)(C)[C@@H](Cc1c[nH]c(=S)[nH]1)C(=O)[O-]` [L-ergothioneine], in assay [1], the “amount of change in blood basophil count (Δ in basophils (%))” value was “significantly increased” and the “amount of change in blood leukocyte count (Δ in leukocytes (cells/μL))” value is reported as “significantly increased”. The “activity to inhibit substrate binding of epidermal growth factor receptor (EGFR) tyrosine kinase” value in assay [2] was “showed an activity to inhibit substrate binding”. Besides, in assay [3], the peritesticular fat weight result is recorded as “lower” and the “triglyceride (neutral fat) level in plasma” value is reported as “lower”. For the same compound, the “detection of IL-6, IL-12p40, IL-1β, and IL-10” value in assay [4] was “none of IL-6, IL-12p40, IL-1β, and IL-10 was detected”.
